Assay results from US10650534B2, “Display control and image processing of a cell image” (Sony Corporation, priority 2011, dated 2020).
“Also recorded” adds a separate entry of the source.

System: cultured cardiomyocytes
Assay: Propagation of pulsation in cultured cardiomyocytes after drug administration, shown by two-dimensional color maps of the motion amount absolute value
Assay type: cell-based
Conditions: for speed of propagation of pulsation / state (direction, path) of propagation of pulsation: compared with organic solvent (control); for state (direction, path) of propagation of pulsation: color maps over 0 to 240 ms; for stop of propagation of pulsation / region without pulsation (motionless region): within the observation region
Description: A drug evaluation apparatus 100 illustrated in FIG. 3 is an apparatus that conducts evaluation of a drug administered to cultured cardiomyocytes 110 by observing a motion of the cardiomyocytes 110. […] The imaging unit 101 images the cultured cardiomyocytes 110 during a predetermined period. That is, the imaging unit 101 obtains a moving image of the cultured cardiomyocytes 110 as an object. The imaging unit 101 images the cultured cardiomyocytes 110 before and after the drug administration. Note that the imaging unit 101 may image the cultured cardiomyocytes 110 several times after the drug administration according to a predetermined condition, such as after a predetermined time having passed, for example. The evaluation index data generation unit 103 performs, in each frame image of the supplied object to be evaluated image data 112, motion detection of the object to be observed (cultured cardiomyocytes 110) for each block that is a subregion obtained by dividing all regions of an image of the object to be observed (cultured cardiomyocytes 110) into a plurality of regions. The evaluation index data generation unit 103 expresses the detected motion of each block as a motion vector, and obtains the magnitude of the motion vector (motion amount). Note that this motion amount is an absolute value, and therefore, hereinafter, the motion amount will be also referred to as a motion amount absolute value. The evaluation unit 104 maps the motion amount absolute value supplied as the evaluation index data 113 into a two-dimensional color map, and evaluates the drug by expressing the state of propagation of pulsation and further, by quantitatively evaluating the state thereof. The evaluation unit 104 outputs the two-dimensional color map and a quantitative evaluation result as an evaluation value 114. The two-dimensional color map indicates the size of a parameter at each position on a plane in color. In this case, the plane represents an observation region of the cultured cardiomyocytes 110, and the color represents the motion amount absolute value (size of the value). That is, a position of the motion amount absolute value is represented by a position on the plane, and the size of the value is represented in color. That is, a distribution of the motion amount absolute value within the observation region is indicated by a change of the color on the plane. Examples of such a two-dimensional color map are illustrated in FIGS. 4 to 6. The eight color maps illustrated in FIG. 4 respectively indicate the distribution of the motion amount absolute value within the observation region, and a position on the color map indicates a position within the observation region and higher color density indicates a larger motion amount absolute value. […] Note that the arrows on the color maps are drawn for the purpose of description, and they are not drawn on actual color maps.

SMILES	speed of propagation of pulsation	state (direction, path) of propagation of pulsation	stop of propagation of pulsation / region without pulsation (motionless region)
CC(C)NCC(O)c1ccc(NS(C)(=O)=O)cc1 (racemic) [DL-sotalol]	the speed of the propagation is slower than the left side	propagated from an upper left side to a lower right side, but the propagation stops within the observation region	pulsation is not caused in a part of the observation region in the right side; also recorded: the pulsation is not propagated to the right side portion of the observation region
CCCCCCCO [1-Heptanol]	the speed of the propagation is slow	linearly propagated as time passes while changing the direction to revolve	
CC1(C)[C@@H](O)CC[C@]2(C)[C@H]3C(=O)C=C4[C@@H]5C[C@@](C)(C(=O)O)CC[C@]5(C)CC[C@@]4(C)[C@]3(C)CC[C@@H]12 [18-β-Glycyrrhetinic acid]	the speed of the propagation is slow	proceeds into various directions	the propagation of the pulsation temporarily stops
